From US8445437B2, “Treatment and prevention of cardiovascular disease using mast cell stabilizers” (The Brigham and Women's Hospital, Inc., priority 2006, dated 2013)

System: LDLr-/- mice fed an atherogenic (Western) diet
Test: Diet-induced atherosclerosis in LDLr-/- mice with mast cell stabilization or activation
Format: in vivo, mouse
Conditions: male LDLr-/- mice, 25 mg/kg/day daily

Q: Which “reduction of atherosclerotic lesion development” value (12 weeks) does the source give for `O=C(O)c1cc(=O)c2c(OCC(O)COc3cccc4oc(C(=O)O)cc(=O)c34)cccc2o1` [DSCG, disodium cromoglycate] here?
A: Its value is greater than 50%.

Q: What about the “reduction of atherosclerotic lesion development” value (26 weeks) of the same molecule?
A: The value was greater than 50%.
